# Data taken from US20020002171A1, “Materials and methods for killing nematodes and nematode eggs” (priority 2000, published 2002).
# Test system: Caenorhabditis elegans
# Assay: C. elegans L1 nematicidal dose response in 96-well plates, 5 day visual score (Example 2; same procedure for Example 7, Table 3)
# Assay type: in vivo
# Set-up: key to 5 Day Visual Score V1 / 5 Day Visual Score V2 / 5 Day Visual Score V3 / 5 Day Visual Score V4 / 5 Day Visual Score V6 / 5 Day Visual Score V5 / Initial HTS Run Visual Score / Follow-up HTS Run Visual Score: Dead: only stiff L1s (no movement); Dead (L4): worms are dead, but at a later larval stage; majority of worms are L1 (based on size) worms move when plate is tapped; majority of worms are L2 (based on size); majority of worms are L3 (based on size); majority of worms are L4 (based on size); AD: majority of worms are adult; #AD: 5 adult worms or less; B!: sterile (0-25 progeny); B: low broodsize (25-100 progeny); ˜B: moderate broodsize (100-250 progeny); <: reduced broodsize (250-500 progeny); OK: no effect (˜1000+ progeny)
# Conditions: for 5 Day Visual Score V1 / 5 Day Visual Score V2 / 5 Day Visual Score V3 / 5 Day Visual Score V4 / 5 Day Visual Score V5 / 5 Day Visual Score V6: dose response; for 5 Day Visual Score V1: dilution V1, day 5; for 5 Day Visual Score V2: dilution V2, day 5; for 5 Day Visual Score V3: dilution V3, day 5; for 5 Day Visual Score V4: dilution V4, day 5; for 5 Day Visual Score V5: dilution V5, day 5; for 5 Day Visual Score V6: dilution V6, day 5
# Procedure, shortened: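 Scoring was by eye at 100× on day 5, after incubation at 20° C, of 20 C. elegans L1s per well fed 1% E. coli HB101 in NGM. Compound columns V1–V6 spanned 70 μM to 0.3 μM in 3-fold steps, with 1.4% DMSO in the top well and as control.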
SMILES,Follow-up HTS Run % Run [%],Follow-up HTS Run Visual Score,Follow-up HTS Run mOD [mOD],Initial HTS Run % Run [%],Initial HTS Run Visual Score,Initial HTS Run mOD [mOD],5 Day Visual Score V1,5 Day Visual Score V2,5 Day Visual Score V3,5 Day Visual Score V4,5 Day Visual Score V5,5 Day Visual Score V6
CC1CC(C)CN(c2nc(NCc3c(F)cccc3F)ns2)C1 (stereo not drawn) [compound 245],117,B! (sterile (0-25 progeny)),189,103,B!-Few Eggs,113,L2/Dead(L3),#AD/˜B,< (reduced broodsize (250-500 progeny)),OK (no effect (˜1000+ progeny)),OK (no effect (˜1000+ progeny)),OK (no effect (˜1000+ progeny))
Fc1cccc(F)c1CNc1nsc(N2CCN(c3cccc(C(F)(F)F)c3)CC2)n1 [compound 246],130,,209,123,L3,135,Dead,,OK (no effect (˜1000+ progeny)),OK (no effect (˜1000+ progeny)),OK (no effect (˜1000+ progeny)),OK (no effect (˜1000+ progeny))
CC1CCN(c2nc(NCc3ccc(C(F)(F)F)cc3)ns2)CC1 [compound 247],105,,169,91,,100,,˜B (moderate broodsize (100-250 progeny)),OK (no effect (˜1000+ progeny)),OK (no effect (˜1000+ progeny)),OK (no effect (˜1000+ progeny)),OK (no effect (˜1000+ progeny))
CC1CC(C)CN(c2nc(NCc3ccc(C(F)(F)F)cc3)ns2)C1 (stereo not drawn) [compound 248],112,L3/L4/AD/B!,181,99,L3/L4/AD/B,109,,˜B (moderate broodsize (100-250 progeny)),< (reduced broodsize (250-500 progeny)),OK (no effect (˜1000+ progeny)),OK (no effect (˜1000+ progeny)),OK (no effect (˜1000+ progeny))
CCN(CC)C(=O)C1CCCN(c2nc(NCc3ccc(C(F)(F)F)cc3)ns2)C1 (stereo not drawn) [compound 249],112,,180,98,,108,,˜B (moderate broodsize (100-250 progeny)),OK (no effect (˜1000+ progeny)),OK (no effect (˜1000+ progeny)),OK (no effect (˜1000+ progeny)),OK (no effect (˜1000+ progeny))
FC(F)(F)c1ccc(CNc2nsc(N3CCN(c4cccc(C(F)(F)F)c4)CC3)n2)cc1 [compound 250],125,,201,108,L2 - (Dead L3),119,L3/Dead(L3),L4/#AD/B!,B (low broodsize (25-100 progeny)),OK (no effect (˜1000+ progeny)),OK (no effect (˜1000+ progeny)),OK (no effect (˜1000+ progeny))
CC(O)CN(CC(C)O)c1nc(NCc2ccc(C(F)(F)F)cc2)ns1 (stereo not drawn) [compound 252],100,L2 - Dead L3,161,100,Dead(L3),110,Dead(L3),Dead(L3),,< (reduced broodsize (250-500 progeny)),< (reduced broodsize (250-500 progeny)),< (reduced broodsize (250-500 progeny))
OCCN(CCO)c1nc(NCc2ccc(C(F)(F)F)cc2)ns1 [compound 254],113,L2 - Dead L3,182,105,Dead(L3),116,Dead(L3),,< (reduced broodsize (250-500 progeny)),OK (no effect (˜1000+ progeny)),OK (no effect (˜1000+ progeny)),OK (no effect (˜1000+ progeny))
OCCN(Cc1ccccc1)c1nc(NCc2ccc(C(F)(F)F)cc2)ns1 [compound 255],98,L1/L2 - Dead L3,157,94,Dead(L3),103,Dead,Dead,OK (no effect (˜1000+ progeny)),OK (no effect (˜1000+ progeny)),OK (no effect (˜1000+ progeny)),OK (no effect (˜1000+ progeny))
CN(CCO)c1nc(NCc2ccc(C(F)(F)F)cc2)ns1 [compound 256],112,L2 - Dead L3,180,106,L2 - (Dead L3),117,Dead,,OK (no effect (˜1000+ progeny)),OK (no effect (˜1000+ progeny)),OK (no effect (˜1000+ progeny)),OK (no effect (˜1000+ progeny))
COCCN(CCOC)c1nc(NCc2ccc(C(F)(F)F)cc2)ns1 [compound 257],104,L4/AD/B!,168,91,L4/AD/B!,100,L1,˜B (moderate broodsize (100-250 progeny)),OK (no effect (˜1000+ progeny)),OK (no effect (˜1000+ progeny)),OK (no effect (˜1000+ progeny)),OK (no effect (˜1000+ progeny))
FC(F)(F)c1cccc(N2CCN(c3nc(NCc4ccccc4C(F)(F)F)ns3)CC2)c1 [compound 258],124,B! (sterile (0-25 progeny)),200,111,L4/AD/B!-Few Eggs,122,,,˜B (moderate broodsize (100-250 progeny)),˜B (moderate broodsize (100-250 progeny)),OK (no effect (˜1000+ progeny)),OK (no effect (˜1000+ progeny))
CCCN(CC1CC1)c1nc(NCc2ccccc2C(F)(F)F)ns1 [compound 260],147,L2,236,122,L2 (Dead L3),134,L1,B (low broodsize (25-100 progeny)),OK (no effect (˜1000+ progeny)),OK (no effect (˜1000+ progeny)),OK (no effect (˜1000+ progeny)),OK (no effect (˜1000+ progeny))
CC1CCN(c2nc(NCc3ccccc3)ns2)CC1 [compound 261],96,,155,96,L3/L4/AD/B!,106,Dead,,OK (no effect (˜1000+ progeny)),OK (no effect (˜1000+ progeny)),OK (no effect (˜1000+ progeny)),OK (no effect (˜1000+ progeny))
OC1CCN(c2nc(NCc3ccccc3)ns2)CC1 [compound 262],106,,171,110,L3/L4/AD/B!,121,L4/#AD/B!,< (reduced broodsize (250-500 progeny)),OK (no effect (˜1000+ progeny)),OK (no effect (˜1000+ progeny)),OK (no effect (˜1000+ progeny)),OK (no effect (˜1000+ progeny))
OCC1CCCN(c2nc(NCc3ccccc3)ns2)C1 (stereo not drawn) [compound 263],104,,167,110,,121,,˜B (moderate broodsize (100-250 progeny)),OK (no effect (˜1000+ progeny)),OK (no effect (˜1000+ progeny)),OK (no effect (˜1000+ progeny)),OK (no effect (˜1000+ progeny))
